Reference: publication PMC5613053 (Investigational New Drugs, 2017)

Tests used:
[1] = tested on: parental Ba/F3 cells in the presence of IL-3; assay: CellTiter-Glo cell viability, off-target; format: cell-based; details: Mus musculus, BaF3, 48 h; IL-3 present; 2 days of treatment; off-target inhibition; read-out: Cell growth inhibition IC50
Protocol: A detailed protocol is provided in the online resource.
The assay was performed in either triplicate or quadruplicate. […] The geometric mean was calculated from three individual experiments.

phosphorylated AXL = molecular target: T1, phosphorylated AXL (Homo sapiens, UniProt P30530); assay: Immunoblot of phospho-AXL in MV4-11-AXL cells; format: cell-based; details: 4 h, MV4–11 cells expressing exogenous AXL
T1 construct: expressed in transfected cells; host or cells: MV4-11-AXL cells (MV4-11 exogenously expressing AXL)
T1 sequence (P30530 26-894): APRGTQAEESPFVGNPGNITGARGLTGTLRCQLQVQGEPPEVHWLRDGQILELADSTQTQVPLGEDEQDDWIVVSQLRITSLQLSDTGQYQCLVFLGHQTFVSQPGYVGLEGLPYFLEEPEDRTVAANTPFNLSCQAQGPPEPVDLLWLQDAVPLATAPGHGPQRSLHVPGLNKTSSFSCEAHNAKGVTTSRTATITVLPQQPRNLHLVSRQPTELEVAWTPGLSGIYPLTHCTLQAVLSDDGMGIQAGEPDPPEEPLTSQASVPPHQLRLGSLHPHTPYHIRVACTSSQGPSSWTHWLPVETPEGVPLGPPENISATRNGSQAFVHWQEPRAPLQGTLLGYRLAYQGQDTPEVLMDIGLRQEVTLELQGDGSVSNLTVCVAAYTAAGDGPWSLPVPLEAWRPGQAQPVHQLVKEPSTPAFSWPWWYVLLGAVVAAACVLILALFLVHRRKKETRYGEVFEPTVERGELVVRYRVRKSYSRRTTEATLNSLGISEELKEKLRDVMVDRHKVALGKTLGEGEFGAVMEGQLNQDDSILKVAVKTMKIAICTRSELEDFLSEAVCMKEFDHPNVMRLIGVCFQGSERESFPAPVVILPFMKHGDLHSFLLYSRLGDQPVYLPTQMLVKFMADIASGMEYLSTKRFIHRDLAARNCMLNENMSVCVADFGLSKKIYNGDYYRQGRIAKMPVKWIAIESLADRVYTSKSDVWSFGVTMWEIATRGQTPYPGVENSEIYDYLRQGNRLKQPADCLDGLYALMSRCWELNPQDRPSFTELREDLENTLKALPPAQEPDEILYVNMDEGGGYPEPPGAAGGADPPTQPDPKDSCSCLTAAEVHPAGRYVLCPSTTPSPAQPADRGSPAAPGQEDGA
Protocol: Cells were treated for 4 h prior to cell lysate preparation in RIPA buffer supplemented with phosphatase / protease inhibitors. The protein lysates were subsequently electrophoresed on 7.5% gels and transferred to PVDF membranes.
All membranes were blocked using either Blocking One or Blocking One-P (Nacalai Tesque Inc., Kyoto, Japan) for 1 h prior to an overnight incubation with primary antibody. Membranes were incubated overnight at 4°C with one of the following antibodies: anti-FLT3 antibody (Abcam), anti-phosphorylated pan-tyrosine, anti-ERK, anti-phospho-ERK, anti-STAT5, anti-phospho-STAT5, anti-AKT, anti-phospho-AKT, anti-AXL, anti-phospho-AXL, or anti-actin. The membranes were then washed with 1× TBS Tween-20 (TBS-T) Buffer (Thermo Fisher Scientific Inc., Rockford, IL) and incubated with an appropriate HRP-linked secondary antibody (Cell Signaling Technology) for 1 h at room temperature. After a final wash, ECL Western Blotting Detection Reagent ECL-prime (GE Healthcare, Fairfield, CT) were applied to the membranes and signals were detected with a CCD camera (ImageQuant LAS4000; GE Healthcare). Signal intensity was then quantified using ImageQuant™ TL software (GE Healthcare). The study was performed once in triplicate, and the mean percentage of phosphorylated protein to total protein relative to that in vehicle-treated cells was calculated.
Fig. S1. […] Protein lysates were collected in RIPA buffer and immunoblotting was performed to detect both phosphorylated and total levels of AXL (triplicate).

CCc1nc(C(N)=O)c(Nc2ccc(N3CCC(N4CCN(C)CC4)CC3)c(OC)c2)nc1NC1CCOCC1 [gilteritinib]
IC50 [1]: 420 nM
Decrease of phosphorylated AXL levels (phosphorylated AXL; 1 nM): 38%
Decrease of phosphorylated AXL levels (phosphorylated AXL; 10 nM): 29%
Decrease of phosphorylated AXL levels (phosphorylated AXL; 100 nM): 22%
